According to patent publication US11298367B2, “Prodrugs of substituted triazole derivatives and uses thereof” (Bayer Aktiengesellschaft, priority 2017, dated 2022):

What was measured:
[1] = molecular target: T1, human V1a receptor (Homo sapiens, UniProt P37288); assay: Cellular in vitro assay for vasopressin receptor activity (V1a, aequorin luminescence); assay type: cell-based; details: for IC50: CHO cell line with human V1a receptor, [Arg8]-vasopressin at EC50, values are for the prodrug as such, read-out: IC50 hV1a; for ratio IC50 hV2/hV1a: selectivity ratio hV2/hV1a
T1 construct: expressed in transfected cells; host or cells: CHO K1 (Chinese hamster ovary), also stably transfected with a modified aequorin
Description: (§1) B-1. Cellular In Vitro Assay for Determining Vasopressin Receptor Activity
(§2) The identification of agonists and antagonists of the V1a and V2 vasopressin receptors from humans, rats and dogs as well as the quantification of the activity of the compounds of the invention is carried out using recombinant cell lines. These cell lines originally derive from a hamster's ovary epithelial cell (Chinese Hamster Ovary, CHO K1, ATCC: American Type Culture Collection, Manassas, Va. 20108, USA). The test cell lines constitutively express the human, rat or dog V1a or V2 receptors. In case of the Gaq-coupled V1a receptors, cells are also stably transfected with a modified form of the calcium-sensitive photoproteins aequorin (human and rat V1a) or obelin (dog V1a), which, after reconstitution with the cofactor coelenterazine, emit light when there are increases in free calcium concentrations [Rizzuto R, Simpson A W, Brini M, Pozzan T, Nature 358, 325-327 (1992); Illarionov B A, Bondar V S, Illarionova V A, Vysotski E S, Gene 153 (2), 273-274 (1995)]. The resulting vasopressin receptor cells react to stimulation of the recombinantly expressed Via receptors by intracellular release of calcium ions, which can be quantified by the resulting photoprotein luminescence. The Gs-coupled V2 receptors are stably transfected into cell lines expressing the gene for firefly luciferase under control of a CRE-responsible promoter. Activation of V2 receptors induces the activation of the CRE-responsive promoter via cAMP increase, thereby inducing the expression of firefly luciferase. The light emitted by photoproteins of V1a cell lines as well as the light emitted by firefly luciferase of V2 cell lines corresponds to the activation or inhibition of the respective vasopressin receptor. The bioluminescence of the cell lines is detected using a suitable luminometer [Milligan G, Marshall F, Rees S, Trends in Pharmacological Sciences 17, 235-237 (1996)].
Vasopressin V1a Receptor Cell Lines:
On the day before the assay, the cells are plated out in culture medium (DMEM/F12, 2% FCS, 2 mM glutamine, 10 mM HEPES, 5 μg/ml coelenterazine) in 384-well microtiter plates and kept in a cell incubator (96% humidity, 5% v/v CO2, 37C). On the day of the assay, test compounds in various concentrations are placed for 10 minutes in the wells of the microtiter plate before the agonist [Arg^8]-vasopressin at EC50 concentration is added. The resulting light signal is measured immediately in a luminometer.
(§3) Table 1A below lists individual IC50 values for the compounds of the invention (including racemic mixtures as well as separated enantiomers) that were obtained from cell lines transfected with the human V1a or V2 receptor. This means these IC50 values are the values for the prodrug and not for the underlying respective drug as the prodrug is mainly stable under the assay conditions.

[2] = molecular target: T2, human V2 receptor (Homo sapiens, UniProt P30518); assay: Cellular in vitro assay for vasopressin receptor activity (V2, CRE-luciferase); assay type: cell-based; details: CHO cell line with human V2 receptor, [Arg8]-vasopressin at EC50; values are for the prodrug as such; read-out: IC50 hV2
T2 construct: expressed in transfected cells; host or cells: CHO K1 cells expressing firefly luciferase under a CRE-responsive promoter
Description: as §1, §2
Vasopressin V2 Receptor Cell Lines:
On the day before the assay, the cells are plated out in culture medium (DMEM/F12, 2% FCS, 2 mM glutamine, 10 mM HEPES) in 384-well microtiter plates and kept in a cell incubator (96% humidity, 5% v/v CO2, 37C). On the day of the assay, test compounds in various concentrations and the agonist [Arg^8]-vasopressin at EC50 concentration are added together to the wells, and plates are incubated for 3 hours in a cell incubator. Upon addition of the cell lysis reagent Triton™ and the substrate luciferin, luminescence of firefly luciferase is measured in a luminometer.
as §3

[3] = Solubility; assay type: physicochemical; details: 24 h room temperature, max. 500 μg/ml; for solubility at 24 h: thermodynamic from solid
Description: For each substance 0.5-0.6 mg are weighed exactly. In each case, sufficient medium is added to the sample in such a way that a concentration of c=500 μg/ml is obtained. This sample solution is shaken for 24 h at room temperature and 1400 rpm.
A further sample weight of 0.5-0.6 mg is required for the DMSO calibration solution. This sample is filled with DMSO to a concentration of c=600 μg/ml. Two calibration solutions are prepared from this stock solution. In a 2 ml HPLC vial, 1000 μl of DMSO are initially introduced and 34.4 μl of the stock solution are pipetted (c=20 µg/ml). […] of this solution (c=20 μg/ml) are placed in a further 2 ml HPLC vial containing 500 μl of DMSO (c=2.5 μg/ml).
After shaking the test solutions, 230 μl of the supernatant are transferred into a centrifuge tube and centrifuged at 42 000 rpm (223 000 g) for 30 min. 180 μl of the supernatant are then taken and each diluted with DMSO (1:5 sample 1; 1:100 sample 2), and transferred to HPLC vials. The two calibration solutions and the dilute sample solutions are analyzed by HPLC. Quantification is performed over the corresponding peak areas.
Distilled water; trifluoroacetic acid (Merck; 1.08262.0100); acetonitrile (HPLC grade); DMSO (Merck; 8.02912.2500).
Fluka buffer, Order No. 33643 (11.76 g citric acid, 2.57 g sodium chloride and 2.72 g sodium hydroxide).
Fluka buffer, Order No. 33646 (3.52 g potassium dihydrogenphosphate, 7.26 g sodium hydrogen phosphate).
Solution of 6.18 g sodium chloride and 3.96 g sodium dihydrogen phosphate in 1 L distilled water, adjust with 1M aqueous sodium hydroxide solution to pH 7.4.
0.6057 g TRIS was dissolved in 95 ml water, adjust to pH 8.5 with aqueous hydrochloric acid, fill with water until 100 ml volume is reached.

[4] = PBS buffer pH 7.4, pH 7.4, aqueous buffer, pH = 7.4 PBS buffer
[5] = Tris buffer pH 8.5, pH 8.5, aqueous buffer, pH = 8.5 Tris buffer
[6] = citrate buffer pH 4, pH 4, aqueous buffer, pH = 4 citrate buffer

T2 sequence (P30518 whole entry): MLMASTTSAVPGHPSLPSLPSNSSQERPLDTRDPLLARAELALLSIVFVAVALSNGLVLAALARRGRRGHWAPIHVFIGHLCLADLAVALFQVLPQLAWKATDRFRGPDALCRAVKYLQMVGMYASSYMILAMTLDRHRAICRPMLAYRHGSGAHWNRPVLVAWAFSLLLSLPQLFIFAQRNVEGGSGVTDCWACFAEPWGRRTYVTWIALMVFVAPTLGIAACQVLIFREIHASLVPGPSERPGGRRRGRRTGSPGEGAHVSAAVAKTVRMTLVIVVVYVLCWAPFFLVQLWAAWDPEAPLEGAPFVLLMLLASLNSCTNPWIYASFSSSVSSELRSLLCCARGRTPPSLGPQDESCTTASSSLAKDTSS
T1 sequence (P37288 whole entry): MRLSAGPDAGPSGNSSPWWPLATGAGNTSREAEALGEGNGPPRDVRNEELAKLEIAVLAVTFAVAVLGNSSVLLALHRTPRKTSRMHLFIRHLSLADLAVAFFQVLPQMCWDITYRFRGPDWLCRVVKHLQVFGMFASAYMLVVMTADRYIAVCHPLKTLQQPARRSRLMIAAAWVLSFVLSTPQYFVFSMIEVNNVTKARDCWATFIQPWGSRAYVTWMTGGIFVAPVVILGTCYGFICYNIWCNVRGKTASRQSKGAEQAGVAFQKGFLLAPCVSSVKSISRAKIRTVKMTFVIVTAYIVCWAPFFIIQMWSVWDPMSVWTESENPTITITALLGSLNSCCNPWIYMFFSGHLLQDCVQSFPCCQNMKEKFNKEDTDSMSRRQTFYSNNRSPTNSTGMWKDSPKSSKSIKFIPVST

Structure (SMILES)	IC50 [1] [µM]	ratio IC50 hV2/hV1a ([1]; Phosphate)	IC50 [2] [µM]	solubility at 24 h [3, 4] [µg/mL]	solubility at 24 h [3, 5] [µg/mL]	solubility at 24 h [3, 6] [µg/mL]	Solubility ([3]; pH = 4 citrate buffer) [µg/mL]	Solubility ([3]; pH = 7.4 PBS buffer, Phosphate) [µg/mL]	Solubility ([3]; pH = 8.5 Tris buffer, Phosphate) [µg/mL]	ratio IC50 hV2/hV1a [1]
NC(=O)c1nc(Cn2nc(-c3ccc(Cl)cc3)n(C[C@H](OP(=O)([O-])O)C(F)(F)F)c2=O)nn1-c1ncccc1C(F)(F)F.[Na+] [Example 4, Sodium (2S)-3-[1-({5-carbamoyl-1-[3-(trifluoromethyl)pyridin-2-yl]-1H-1,2,4-triazol-3-yl}-methyl)-3-(4-chlorophenyl)-5-oxo-1,5-dihydro-4H-1,2,4-triazol-4-yl]-1,1,1-trifluoropropan-2-yl Hydrogen Phosphate]	0.0111	13.5	0.15	> 500	> 500	> 500				
NC(=O)c1nc(Cn2nc(-c3ccc(Cl)cc3)n(C[C@H](OP(=O)([O-])O)C(F)(F)F)c2=O)nn1-c1ncccc1C(F)(F)F.[Li+] [Example 6, Lithium (2S)-3-[1-({5-carbamoyl-1-[3-(trifluoromethyl)pyridin-2-yl]-1H-1,2,4-triazol-3-yl}-methyl)-3-(4-chlorophenyl)-5-oxo-1,5-dihydro-4H-1,2,4-triazol-4-yl]-1,1,1-trifluoropropan-2-yl Hydrogen Phosphate]	0.0155	14.2	0.22	464	464	> 500				
NC(=O)c1nc(Cn2nc(-c3ccc(Cl)cc3)n(C[C@H](OP(=O)([O-])O)C(F)(F)F)c2=O)nn1-c1ncccc1C(F)(F)F.[Li+] [Example 7, Lithium (2S)-3-[1-({5-carbamoyl-1-[3-(trifluoromethyl)pyridin-2-yl]-1H-1,2,4-triazol-3-yl}-methyl)-3-(4-chlorophenyl)-5-oxo-1,5-dihydro-4H-1,2,4-triazol-4-yl]-1,1,1-trifluoropropan-2-yl Hydrogen Phosphate]	0.00885	18.1	0.16				>500	>500	>500	
NC(=O)c1nc(Cn2nc(-c3ccc(Cl)cc3)n(C[C@H](OP(=O)([O-])O)C(F)(F)F)c2=O)nn1-c1ccccc1C(F)(F)F.[Na+] [Example 14, Sodium (2S)-3-[1-({5-carbamoyl-1-[2-(trifluoromethyl)phenyl]-1H-1,2,4-triazol-3-yl}methyl)-3-(4-chlorophenyl)-5-oxo-1,5-dihydro-4H-1,2,4-triazol-4-yl]-1,1,1-trifluoropropan-2-yl Hydrogen Phosphate]	0.019	1.0	0.0185							
NC(=O)c1nc(Cn2nc(-c3ccc(Cl)cc3)n(C[C@H](OP(=O)([O-])[O-])C(F)(F)F)c2=O)nn1-c1ccccc1C(F)(F)F.[Mg+2] [Example 15, Magnesium (2S)-3-[1-({5-carbamoyl-1-[2-(trifluoromethyl)phenyl]-1H-1,2,4-triazol-3-yl}methyl)-3-(4-chlorophenyl)-5-oxo-1,5-dihydro-4H-1,2,4-triazol-4-yl]-1,1,1-trifluoropropan-2-yl Phosphate]	0.0195		0.021							1.1
NC(=O)c1nc(Cn2nc(-c3ccc(Cl)cc3)n(C[C@H](OP(=O)([O-])[O-])C(F)(F)F)c2=O)nn1-c1ccccc1C(F)(F)F.[Ca+2] [Example 16, Calcium (2S)-3-[1-({5-carbamoyl-1-[2-(trifluoromethyl)phenyl]-1H-1,2,4-triazol-3-yl}methyl)-3-(4-chlorophenyl)-5-oxo-1,5-dihydro-4H-1,2,4-triazol-4-yl]-1,1,1-trifluoropropan-2-yl Phosphate]	0.029		0.0305							1.1
NC(=O)c1nc(Cn2nc(-c3ccc(Cl)cc3)n(C[C@H](OP(=O)([O-])O)C(F)(F)F)c2=O)nn1-c1ncccc1Cl.[K+] [Example 18, Potassium (2S)-3-[1-{[5-carbamoyl-1-(3-chloropyridin-2-yl)-1H-1,2,4-triazol-3-yl]methyl}-3-(4-chlorophenyl)-5-oxo-1,5-dihydro-4H-1,2,4-triazol-4-yl]-1,1,1-trifluoropropan-2-yl Hydrogen Phosphate]	0.0335	2.5	0.084							
NC(=O)c1nc(Cn2nc(-c3ccc(Cl)cc3)n(C[C@H](OP(=O)([O-])O)C(F)(F)F)c2=O)nn1-c1ncccc1Cl.[K+] [Example 19, Potassium (2S)-3-[1-{[5-carbamoyl-1-(3-chloropyridin-2-yl)-1H-1,2,4-triazol-3-yl]methyl}-3-(4-chlorophenyl)-5-oxo-1,5-dihydro-4H-1,2,4-triazol-4-yl]-1,1,1-trifluoropropan-2-yl Hydrogen Phosphate]	0.024	2.1	0.051							
NC(=O)c1nc(Cn2nc(-c3ccc(Cl)cc3)n(C[C@H](OP(=O)([O-])O)C(F)(F)F)c2=O)nn1-c1ncccc1Cl.[Na+] [Example 21, Sodium (2S)-3-[1-{[5-carbamoyl-1-(3-chloropyridin-2-yl)-1H-1,2,4-triazol-3-yl]methyl}-3-(4-chlorophenyl)-5-oxo-1,5-dihydro-4H-1,2,4-triazol-4-yl]-1,1,1-trifluoropropan-2-yl Hydrogen Phosphate]	0.021	1.8	0.038							
NC(=O)c1nc(Cn2nc(-c3ccc(Cl)cc3)n(C[C@H](OP(=O)([O-])[O-])C(F)(F)F)c2=O)nn1-c1ncccc1Cl.[Ca+2] [Example 23, Calcium (2S)-3-[1-{[5-carbamoyl-1-(3-chloropyridin-2-yl)-1H-1,2,4-triazol-3-yl]methyl}-3-(4-chlorophenyl)-5-oxo-1,5-dihydro-4H-1,2,4-triazol-4-yl]-1,1,1-trifluoropropan-2-yl Phosphate]	0.027		0.0735							2.7
